In PMC10269165 (Antimicrobial Agents and Chemotherapy, 2023):

System: MDR isolate of H. contortus, exsheathed L3 larvae
Experiment: Larval motility assay (LMA), Worminator
Type: cell-based, Haemonchus contortus
From the text: The H. contortus isolates used were TxPh-2011-S (Texas A&M University, USA) and UGA MDR 2020 (University of Georgia Athens, USA). TxPh-2011-S (Texas A&M University, USA) was originally isolated from Pronghorn antelope in West Texas in 2011 and is fully drug susceptible, phenotypically determined by the DrenchRite larval development assay (LDA; Microbial Screening Technologies, Kemps Creek, Australia). To establish this as a laboratory isolate, it was initially passaged in goats at Texas A&M University and then at The University of Georgia using both goats and sheep, and it is currently maintained in lambs at Louisiana State University. A nemabiome assay ([69]) was conducted at the University of Calgary to confirm that the isolate is 100% H. contortus. The UGA MDR 2020 (University of Georgia Athens, USA) isolate is resistant to ivermectin, benzimidazoles, levamisole, and moxidectin, as determined by the DrenchRite LDA. To establish this as a laboratory isolate, feces collected from a sheep farm in Georgia with known history of multiple anthelmintic resistance were cultured. Two donor goats were infected with the larvae recovered, which were morphologically ([70]) identified as 89% H. contortus. A fecal egg count reduction test (FECRT) was then performed in the infected goats. First, a combination treatment with albendazole at 15 mg/kg and ivermectin at 0.4 mg/kg was performed, followed by a treatment with levamisole at 12 mg/kg. Later, and to confirm resistance to moxidectin, another treatment was administered using a dose of 0.4 mg/kg of moxidectin. Posttreatment feces were recovered, coprocultures were established, and L3 larvae were identified as 100% H. contortus. Resistance to all drugs was subsequently confirmed using a DrenchRite assay.
For LMAs, the first phase testing using compounds NSC133100 and NSC177383 was done using the Worminator system in parallel with the LDA. Initial stock solutions of 12.5 mM were prepared for each compound using 100% DMSO as a solvent. Initial stock solutions (25 μL) were then diluted in 475 μL of culture media to yield working stock solutions of 625.00, 156.30, 39.10, 9.80, 2.40, 0.60, 0.20, 0.04, and 0.00 μM in 5% DMSO for each drug. In plate, 200 μL of working stock solutions were then diluted in 800 μL of culture media, yielding concentrations of 125.00, 31.25, 7.81, 1.95, 0.49, 0.12, and 0.00 μM in 1% DMSO. For the second phase of testing, compounds showing anthelmintic activity with the LDA were tested in a second round at higher concentrations than in the first phase of testing. Initial stocks of 50 mM were prepared for compounds NSC133100, NSC177383, NSC145612, and NSC56410 using 100% DMSO as a solvent. Initial stock solutions (25-μL portions) were then diluted in 475 μL of culture media consisting of 65% Lauria-Bertani (LB) (Thermo Fisher Scientific, Branchburg, NJ), 25% NCTC (Sigma-Aldrich), 10% fetal bovine serum (Atlanta Biologicals, Flowery Branch, GA), Pen/Strep (Sigma-Aldrich) at a final concentration of […], and amphotericin B (Sigma-Aldrich) at a final concentration of […]. The working stock solutions yielded concentrations of 2,500.00, 625.00, 156.30, 39.10, 9.80, 2.40, and 0.00 μM in 5% DMSO for each compound. In each well in the plate, 200 μL of working stock solutions were then diluted in 800 μL of culture media, yielding final concentrations of 500.00, 125.00, 31.30, 7.81, 1.95, 0.49, and 0.00 μM in 1% DMSO.
For the motility assays, 24-well plates with inserts were used (Costar, catalog no. 3379; Corning, Inc., Corning, NY). Portions (640 μL) of culture media were added to each well, and approximately 50 exsheathed larvae contained in 160 μL of culture media in each insert. Once pretreatment readings were taken, 160 μL of the drug solution was added to the well, and another 40 μL was added to the insert, reaching the final concentrations described in the protocol above. All concentrations were tested in triplicate. […]

CO[C@H]1/C=C/O[C@@]2(C)Oc3c(C)c(O)c4c(O)c(cc(O)c4c3C2=O)NC(=O)/C(C)=C\C=C\[C@H](C)[C@H](O)[C@@H](C)[C@@H](O)[C@@H](C)[C@H](OC(C)=O)[C@@H]1C [NSC133100]
Percent inhibition of larval motility (15.625 µM, 1 hour): 6.1% | Percent inhibition of larval motility (15.625 µM, 4 hours): 6.9% | Percent inhibition of larval motility (15.625 µM, 24 hours): -6.8% | Percent inhibition of larval motility (15.625 µM, 48 hours): -11.1% | Percent inhibition of larval motility (15.625 µM, 72 hours): -11.7% | Percent inhibition of larval motility (15.625 µM, 96 hours): -3.4% | Percent inhibition of larval motility (15.625 µM, Initial): -7.4% | Percent inhibition of larval motility (31.25 µM, 1 hour): 6.3% | Percent inhibition of larval motility (31.25 µM, 4 hours): 1.6% | Percent inhibition of larval motility (31.25 µM, 24 hours): 0.6% | Percent inhibition of larval motility (31.25 µM, 48 hours): 11.9% | Percent inhibition of larval motility (31.25 µM, 72 hours): 3.1% | Percent inhibition of larval motility (31.25 µM, 96 hours): 5.5% | Percent inhibition of larval motility (31.25 µM, Initial): -21.7% | Percent inhibition of larval motility (62.5 µM, 4 hours): -11.1% | Percent inhibition of larval motility (62.5 µM, 24 hours): -12.6% | Percent inhibition of larval motility (62.5 µM, 48 hours): -2.3% | Percent inhibition of larval motility (125 µM, 1 hour): 33.8% | Percent inhibition of larval motility (125 µM, 4 hours): 3.0% | Percent inhibition of larval motility (125 µM, 24 hours): -6.2% | Percent inhibition of larval motility (125 µM, 48 hours): 18.4% | Percent inhibition of larval motility (125 µM, 72 hours): 14.0% | Percent inhibition of larval motility (125 µM, 96 hours): 26.6% | Percent inhibition of larval motility (125 µM, Initial): -12.3% | Percent inhibition of larval motility (250 µM, 1 hour): 38.9% | Percent inhibition of larval motility (250 µM, 24 hours): -12.4% | Percent inhibition of larval motility (250 µM, 48 hours): 28.6% | Percent inhibition of larval motility (250 µM, 96 hours): 0.9% | Percent inhibition of larval motility (250 µM, Initial): -11.5% | Percent inhibition of larval motility (500 µM, 1 hour): 33.9% | Percent inhibition of larval motility (500 µM, 4 hours): -2.0% | Percent inhibition of larval motility (500 µM, 24 hours): -0.5% | Percent inhibition of larval motility (500 µM, 48 hours): 22.2% | Percent inhibition of larval motility (500 µM, 72 hours): 12.1% | Percent inhibition of larval motility (500 µM, 96 hours): 18.5% | Percent inhibition of larval motility (500 µM, Initial): 5.8%
